The record followed here is patent US10039284B2, “Pesticidal compositions” (priority 2006, dated 2018).

Data set [1] deals with Common Cutworm (Spodoptera litura). Briefly: whole plant or invertebrate. The note with it: for Mortality (%): 5th or 6th day. Here is the method: They were diluted to a predetermined concentration with water containing a spreader (Shin-Rinoh 0.040) and subjected to the test by themselves or as a mixed liquid.
A leaf segment of cabbage was dipped for about 10 seconds in an insecticidal solution and dried in air. A wet filter paper was laid in a petri dish having a diameter of 9 cm, and the dried leaf segment of cabbage was placed thereon. 10 Second-instar larvae of common cutworm were released therein and after putting a cover, left in a constant temperature chamber at 25° C. with lightening. On the 5th or 6th day after release, dead larvae were counted, and the mortality was calculated by the following equation. Here, the insects that were moribund were counted as dead insects. Mortality (%)={(number of dead insects)/(number of surviving insects+number of dead insects)}×100
Further, the theoretical mortality (%) can be calculated from the colby's formula.

The subject of data set [2] is Green Peach Aphid (Myzus persicae). Nature of the data set: Test on Controlling Effects Against Green Peach Aphid (radish leaf dip). The format is in vivo. Particulars: third day after the dipping; for mortality at 0.05 ppm: other pesticide alone 0.05 ppm; for mortality at 100 ppm: other pesticide alone 100 ppm; for mortality at 200 ppm: other pesticide alone 200 ppm. Here is the method: Japanese radish leaf (cut into about 2 cm×3 cm) was put in a test tube in which water was put, and Larvae of green peach aphid were released on the leaf. […] On the third day after the dipping, dead larvae were counted, and the mortality was calculated from the following equation. Aphids that dropped from leaf or were moribund were included in the number of dead. […] Mortality (%)=(number of dead insects/number of treated insects)×100

Data set [3] deals with Green Rice Leafhopper (Nephotettix cincticeps). Briefly: Test on Controlling Effects Against Green Rice Leafhopper (rice seedling dip). It counts as in vivo. The text has this:
The root was wrapped with absorbent cotton wet with water, and the rice seedling was put in a test tube.

Where [4] appears, read: Spodoptera litura, in Brassica oleracea, foliar.

As to spinosad, the “Mortality (%)” value worked out at 20% in data set [1] (other pesticide alone 1.5 ppm), 60% in data set [1] (other pesticide alone 3.1 ppm) and 60% in data set [1] (other pesticide alone 6.2 ppm).

`CCOP(=O)(SC(C)CC)N1CCSC1=O` (centres unmarked) [Fosthiazate, fosthiazate]: the mortality at 25 ppm in data set [1] (setting [4]) amounted to 88%.

`O=C(NC(=O)c1c(F)cccc1F)Nc1cc(Cl)c(Oc2ncc(C(F)(F)F)cc2Cl)c(Cl)c1` [Chlorfluazuron, chlorfluazuron]: in data set [1] (setting [4]), the mortality at 0.0025 ppm was 0%, the mortality at 0.005 ppm amounted to 0% and the mortality at 0.01 ppm was 0%.

In data set [1] (setting [4]), `OCC1=C[C@H](N[C@H]2C[C@H](CO)[C@@H](O[C@@H]3O[C@H](CO)[C@@H](O)[C@H](O)[C@H]3O)[C@H](O)[C@H]2O)[C@H](O)[C@@H](O)[C@@H]1O` [Validamycin, validamycin] displayed a mortality at 25 ppm of 0% and a mortality at 50 ppm of 0%.

On to `CC(C)(C)c1ccc(CSc2cnn(C(C)(C)C)c(=O)c2Cl)cc1` [Pyridaben, pyridaben], for which, in data set [1] (setting [4]), the mortality at 100 ppm amounted to 0% and the mortality at 200 ppm is 10%.

In data set [1] (setting [4]), `CC1(C)[C@H](C(=O)O[C@H](C#N)c2cccc(Oc3ccccc3)c2)[C@@H]1C=C(Br)Br` [Deltamethrin, deltamethrin] registered a mortality at 0.4 ppm of 30%.

In data set [1] (setting [4]), `O=C1CCc2cccc3c2N1CC3` [Pyroquilon, pyroquilon] registered a mortality at 50 ppm of 0%, a mortality at 100 ppm of 0% and a mortality at 200 ppm of 0%.

In data set [1] (setting [4]), `C#CCOS(=O)OC1CCCCC1Oc1ccc(C(C)(C)C)cc1` (centres unmarked) [Propargite, propargite] displayed a mortality at 50 ppm of 0%, a mortality at 100 ppm of 0% and a mortality at 200 ppm of 0%.

`C/C(=N\C#N)N(C)Cc1ccc(Cl)nc1` [Acetamiprid, acetamiprid]: in data set [1] (setting [4]), the mortality at 12.5 ppm is 0% and the mortality at 25 ppm was found to be 10%.

In data set [1] (setting [4]), `CC(C)=CC1C(C(=O)OCc2cccc(Oc3ccccc3)c2)C1(C)C` (centres unmarked) [Phenothrin, phenothrin] returned a mortality at 12.5 ppm of 20% and a mortality at 25 ppm of 80%.

`O=[N+]([O-])NC1=NCCN1Cc1ccc(Cl)nc1` [Imidacloprid, imidacloprid]: the mortality at 0.05 ppm in data set [2] (Myzus persicae, foliar) came out at 60%. Also, the mortality at 0.1 ppm in data set [2] (Myzus persicae, foliar, other pesticide alone 0.1 ppm) was 67%. In data set [1] (setting [4]), this compound had a mortality at 12.5 ppm of 20% and a mortality at 50 ppm of 75%.

Turning to `Cc1c(Cl)cc(-c2ccc(=O)[nH]n2)cc1Cl` [Diclomezine, diclomezine], in data set [2] (Myzus persicae, foliar), the mortality at 100 ppm was determined as 0% and the mortality at 200 ppm was 0%.

Turning to `C/C=C(\C)C(=O)O[C@H]1C[C@@H](OC(C)=O)[C@@]2(C(=O)OC)CO[C@H]3[C@@H](O)[C@@](C)([C@]45O[C@@]4(C)[C@H]4C[C@@H]5O[C@@H]5OC=C[C@@]54O)[C@H]4[C@]1(CO[C@]4(O)C(=O)OC)[C@@H]32` [Azadirachtin, azadirachtin], in data set [2] (Myzus persicae, foliar, other pesticide alone 6.2 ppm), the mortality at 6.2 ppm turned out to be 0%. This compound also had a mortality at 12.5 ppm in data set [2] (Myzus persicae, foliar, other pesticide alone 12.5 ppm) of 88%. In addition, the mortality at 3.1 ppm in data set [1] (setting [4]) was determined as 0%.

As to `O=C(NC(=O)c1c(F)cccc1F)Nc1cc(Cl)c(OC(F)(F)C(F)C(F)(F)F)cc1Cl` (centres unmarked) [Lufenuron, lufenuron], the mortality at 0.0125 ppm in data set [1] (setting [4]) was determined as 70%.

In turn, `CC(C)OC(=O)C(C(=O)OC(C)C)=C1SCCS1` [Isoprothiolane, isoprothiolane] registered a mortality at 200 ppm in data set [3] (Nephotettix cincticeps) of 50%.

As for `CCCCCCCCCCCCC1=C(OC(C)=O)C(=O)c2ccccc2C1=O` [Acequinocyl, acequinocyl], in data set [1] (setting [4]), the mortality at 37.5 ppm amounted to 0%, the mortality at 75 ppm was 0% and the mortality at 150 ppm came out at 0%.

In data set [1] (setting [4]), `CC1(C)C(C=C(Cl)Cl)C1C(=O)OC(C#N)c1cccc(Oc2ccccc2)c1` (centres unmarked) [Zeta-cypermethrin, zeta-cypermethrin] returned a mortality at 0.4 ppm of 0%, a mortality at 0.8 ppm of 0% and a mortality at 1.5 ppm of 20%.

In data set [1] (setting [4]), `FC(F)(F)c1ccc(OCCCOc2c(Cl)cc(OCC=C(Cl)Cl)cc2Cl)nc1` [Pyridalyl, pyridalyl] came in with a mortality at 0.4 ppm of 0% and a mortality at 1.5 ppm of 80%.

On to `CO/C=C(/C(=O)OC)c1ccccc1Oc1cc(Oc2ccccc2C#N)ncn1` [Azoxystrobin, azoxystrobin], for which the “Mortality (%)” value in data set [3] (other pesticide alone 25 ppm, 5th or 6th day) is recorded as 30%.

Take `CC1(C)C(C=C(Cl)Cl)C1C(=O)OCc1cccc(Oc2ccccc2)c1` (centres unmarked) [Permethrin, permethrin]: in data set [1] (setting [4]), the mortality at 3.1 ppm turned out to be 0%.

For `Cc1ccc(NC(=O)c2snnc2C)cc1Cl` [Tiadinil, tiadinil], in data set [1] (setting [4]), the mortality at 50 ppm amounted to 0%, the mortality at 100 ppm worked out at 0% and the mortality at 200 ppm is 0%.

For `CC(=O)N1C(=O)N(NCc2cccnc2)Cc2cc(C(F)(C(F)(F)F)C(F)(F)F)ccc21` [Pyrifluquinazon, pyrifluquinazon], the “Mortality (%)” value in data set [1] (other pesticide alone 25 ppm), in data set [1] (other pesticide alone 50 ppm) and in data set [1] (other pesticide alone 100 ppm) was 0% throughout.

Regarding `Nc1nc(N)nc(NC2CC2)n1` [Cyromazine, cyromazine], in data set [1] (setting [4]), the mortality at 25 ppm came out at 30% and the mortality at 50 ppm was 60%.

`CCOCn1c(-c2ccc(Cl)cc2)c(C#N)c(Br)c1C(F)(F)F` [Chlorfenapyr, chlorfenapyr] came in with a mortality at 0.4 ppm in data set [1] (setting [4]) of 20%.

Consider `CC(C)([CH2][Sn]([CH2]C(C)(C)c1ccccc1)([CH2]C(C)(C)c1ccccc1)[O][Sn]([CH2]C(C)(C)c1ccccc1)([CH2]C(C)(C)c1ccccc1)[CH2]C(C)(C)c1ccccc1)c1ccccc1` [fenbutatin oxide], for which, in data set [1] (other pesticide alone 200 ppm), the “Mortality (%)” value is 0%.

In data set [1] (setting [4]), `N#Cc1nn(-c2c(Cl)cc(C(F)(F)F)cc2Cl)c(N)c1[S+]([O-])C(F)(F)F` (centres unmarked) [Fipronil, fipronil] had a mortality at 0.4 ppm of 10% and a mortality at 0.8 ppm of 60%.

In turn, `CCc1ccc(C(=O)NN(C(=O)c2cc(C)cc(C)c2)C(C)(C)C)cc1` [Tebufenozide, tebufenozide] registered a mortality at 1.5 ppm in data set [1] (setting [4]) of 20%.

For the compound `Cc1ccc(/N=C/N(C)/C=N/c2ccc(C)cc2C)c(C)c1` [Amitraz, amitraz], the mortality at 62.5 ppm in data set [1] (setting [4]) amounted to 0%.

Turning to `CN/C(=N/CC1CCOC1)N[N+](=O)[O-]` (centres unmarked) [Dinotefuran, dinotefuran], in data set [1] (setting [4]), the mortality at 3.1 ppm is 0%, the mortality at 6.2 ppm amounted to 0% and the mortality at 12.5 ppm is 13%.

In the case of `N#C/N=C1\SCCN1Cc1ccc(Cl)nc1` [Thiacloprid, thiacloprid], in data set [1] (setting [4]), the mortality at 50 ppm was 67%.

As for `Cc1ccccc1C(=O)Nc1cccc(OC(C)C)c1` [Mepronil, mepronil], the mortality at 187.5 ppm in data set [3] (Nephotettix cincticeps) is 0%.

In data set [2] (Myzus persicae, foliar), `CCC1(C(=O)N[C@H](C)c2ccc(Cl)cc2)C(C)C1(Cl)Cl` (some centres unmarked) [Carpropamid, carpropamid] had a mortality at 100 ppm of 82% and a mortality at 200 ppm of 93%.

`O=C(NC(=O)c1c(F)cccc1F)Nc1ccc(Oc2ccc(C(F)(F)F)cc2Cl)cc1F` [Flufenoxuron, flufenoxuron]: in data set [1] (setting [4]), the mortality at 0.01 ppm came out at 0%, the mortality at 0.02 ppm was determined as 20% and the mortality at 0.04 ppm was determined as 20%.

`N#CCNC(=O)c1cnccc1C(F)(F)F` [Flonicamid, flonicamid]: the “Mortality (%)” value is recorded as 38% in data set [2] (other pesticide alone 0.8 ppm); 70% in data set [2] (other pesticide alone 1.5 ppm); 0% in data set [1] (other pesticide alone 25 ppm); 30% in data set [1] (other pesticide alone 50 ppm); 0% in data set [1] (other pesticide alone 100 ppm).

Turning to `Cc1cccc2sc3nncn3c12` [Tricyclazole, tricyclazole], in data set [2] (Myzus persicae, foliar), the mortality at 100 ppm was found to be 13% and the mortality at 200 ppm was determined as 0%.

`C[C@H]1O[C@H](O[C@H]2[C@H](O)[C@@H](O)[C@@H](O)[C@H](O)[C@@H]2O)[C@@H](N)C[C@@H]1NC(=N)C(=O)O` [Kasugamycin, kasugamycin]: the “Mortality (%)” value in data set [2] (other pesticide alone 11.5 ppm) is given as 0%.

On to emamectin-benzoate, for which the “Mortality (%)” value in data set [1] (other pesticide alone 0.0025 ppm) is given as 0%; in data set [1] (other pesticide alone 0.005 ppm) it was 10%; in data set [1] (other pesticide alone 0.01 ppm), 30%.

In data set [2] (Myzus persicae, foliar, other pesticide alone 0.025 ppm), `Cc1c(COC(=O)[C@@H]2[C@H](/C=C(\Cl)C(F)(F)F)C2(C)C)cccc1-c1ccccc1` (racemic) [Bifenthrin, bifenthrin] yielded a mortality at 0.025 ppm of 0%. For the same compound, in data set [2] (Myzus persicae, foliar), the mortality at 0.05 ppm came out at 4%. In data set [1] (setting [4]), the mortality at 0.4 ppm is 0% and the mortality at 0.8 ppm stood at 40%.

For `O=C(Nc1ccccc1)N(Cc1ccc(Cl)cc1)C1CCCC1` [Pencycuron, pencycuron], the mortality at 125 ppm in data set [1] (setting [4]) is 0%.

As for `CN/C(=N\[N+](=O)[O-])NCc1cnc(Cl)s1` [Clothianidin, clothianidin], in data set [1] (setting [4]), the mortality at 12.5 ppm worked out at 90%.

In data set [2] (Myzus persicae, foliar, other pesticide alone 125 ppm), `CC(C)Oc1cccc(NC(=O)c2ccccc2C(F)(F)F)c1` [Flutolanil, flutolanil] gave a mortality at 125 ppm of 0%. Besides, in data set [2] (Myzus persicae, foliar, other pesticide alone 250 ppm), the mortality at 250 ppm turned out to be 6%.

In general, mortality refers to the percentage killed. The low end stands for a weak lethal effect, the high end for a strong lethal effect.
